The source made the active and inactive calls.
Legend:
[1] = HeLa cell viability loss – plate reader, dry powder, cytotoxicity control, dose response (AID 651946); type: functional, cell-based
[2] = target: ATP-dependent translocase ABCB1 (Homo sapiens, UniProt P08183); assay: P-gp JC-1 efflux blockers potency – Jurkat-DNR cells, flow cytometry, follow-up, dose response (AID 489002); type: functional
[3] = viability loss in human hepatoma cells – cell-based, CellTiter-Glo luminescence, cherry-pick, set 2, cytotoxicity control, dose response (AID 743395); type: functional
[4] = target: T1, Trace amine-associated receptor 1 (Homo sapiens, UniProt Q96RJ0); assay: Fluorescence-based cell-based high throughput dose response assay to identify agonists of the human trace amine associated receptor 1 (TAAR1).; type: functional
[5] = target: T1, Trace amine-associated receptor 1; assay: Counterscreen for agonists of the human trace amine associated receptor 1 (hTAAR1): Fluorescence-based cell-based high throughput dose response assay to identify hTAAR1 agonist that also desensitize TAAR1 receptor response.; type: functional
cells [6] = type: functional, cell-based
cells [7] = type: functional, cell-based; remark: listed apart in the source
[8] = HGIII-sPLA2 enzyme inhibition potency – biochemical, QFRET, IC50, dose response (AID 743457);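 also: green fluorescence rise as the enzyme cleaves BODIPY PC-A2 in liposomes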
Protein Wnt-3a = Protein Wnt-3a (Mus musculus, UniProt P27467); assay: SAR analysis of small molecule antagonists of Gli-SUFU in a Wnt3a luminescent reporter assay.; type: functional
[9] = target: Metabotropic glutamate receptor 5 (Rattus norvegicus, UniProt P31424); assay: Identification of a glycine sulfonamide based non-MPEP site positive allosteric potentiator (PAM) of mGlu5 (calcium_assay).; type: functional
[10] = blockers of FN fibrillogenesis by fibroblasts – AH1F cells, Alexa488-FN fluorescence, cherry-picks, dose response (AID 1035475); type: functional, cell-based
[11] = viability loss in A549 lung cancer cells – cell-based, cherry-picks, […], cytotoxicity control, dose response (AID 1053119); type: functional
[12] = viability loss in HEK293 kidney cells – cell-based, cherry-picks, set 5, cytotoxicity control, dose response (AID 1053117); type: functional
[13] = general mammalian cell viability loss – inhibitor set, cherry-pick, set 2, cytotoxicity control for miR-122 modulator project, dose response (AID 720697); type: functional, cell-based
cells [14] = assay: cells
Major prion protein = Major prion protein (Homo sapiens, UniProt P04156); type: functional, cell-based

## FC(F)(F)Oc1ccccc1CSc1nnc(-c2ccccc2)o1
[1]
  AC50: > 52 µM (inactive)

## O=C(Nc1ccccc1)C1CCN(c2cc(-c3ccco3)nc3cc(-c4ccccc4)nn23)CC1
[2]
  EC50: 0.1399 µM

## COc1ccc(NC(=O)c2cc(S(=O)(=O)N3CCOCC3)ccc2C)cc1S(=O)(=O)N1CCOCC1
[3]
  AbsAC35_uM: 36.86 µM

## O=C(NCCc1cccs1)C1CC(c2cccc(F)c2)=NO1 (stereo unspecified)
[4]
  EC50: 13.7 µM (inactive)
[5]
  IC50: 2.6 µM (active)
Cells [6]
  EC50: > 29.9 µM (inactive)
Cells [7]
  IC50: > 29.9 µM (inactive)

## O=C1C(=O)N(Cc2ccc(-c3ccccc3)cc2)c2ccc(OC(F)(F)F)cc21
[8]
  IC50: 32 µM (inactive)

## COc1ccccc1C(=O)Nc1cc(N2CCCCC2)ncn1
Protein Wnt-3a
  IC50: > 21.8 µM (inactive)

## CS(=O)(=O)N1c2ccccc2CCC1C(=O)Nc1cccnc1 (stereo unspecified)
[9]
  EC50: 3.62 µM

## CCOc1cccc(C(=O)Nc2ccc(N(CC)CC)cc2)c1
[10]
  AC50: 64.4 µM (active)
[11]
  AC50: > 52 µM (inactive)
[12]
  AC50: 34.6 µM (active)

## COc1cccc(NC(=O)Nc2ccc3c(c2)C(=O)N(C)C[C@@H](OC)[C@@H](C)CN[C@H](C)CO3)c1
[13]
  AC50: 1.49 µM (active)

## Cc1ccc(S(=O)(=O)N2CCCCC2)cc1NC(=O)CSc1ncnc2ccccc12
Cells [14]
  IC50: > 138 µM (inactive)
Major prion protein
  IC50: 5.6 µM (active)
